# Data from patent US20260274892A1, “MACROCYCLIC BROAD SPECTRUM ANTIBIOTICS” (RQx Pharmaceuticals, Inc., priority 2017, published 2026).
# Columns and labels:
# [1] = system: Methicillin Resistant Staphylococcus aureus strain USA 200; assay: Minimum inhibitory concentration (MIC), CLSI broth micro-dilution, S. aureus; type: cell-based; conditions: Staphylococcus aureus, MRSA / USA200, MRSA USA 200, cation adjusted Mueller Hinton Broth + 0.002% Tween-80, 35° C., 22 hours
# In short: (§1)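 Antibacterial potency is measured as MIC by the CLSI broth dilution method. Bacteria at OD600 0.0005 in Tween-80-supplemented cation-adjusted Mueller Hinton broth face ten twofold compound dilutions for 22 h at 35° C.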
# [2] = system: Escherichia coli ATCC 25922; assay: Minimum inhibitory concentration (MIC), CLSI broth micro-dilution, E. coli; type: cell-based; conditions: Escherichia coli, ATCC25922, 22 h
# In short: as §1
# [3] = Table 8, cation adjusted Mueller Hinton Broth + 0.002% Tween-80, 35° C.
# [4] = Table 6, cation adjusted Mueller Hinton Broth + 0.002% Tween-80, 35° C.
Structure (SMILES),MIC ([1]; Table 8),"MIC [2, 3]",MIC ([1]; Table 6),"MIC [2, 4]"
"Cc1nc(-c2ccc(C(C)(C)C)cc2)nc(C)c1C(=O)N[C@@H](CCN)C(=O)N(C)[C@@H]1C(=O)N[C@@H](C)C(=O)N[C@H](C(=O)O)Cc2ccc(OCCN)c(c2)-c2cc1ccc2OCCN (racemic) [Compound 645, rac-(8S,11S,14S)-3,18-bis(2-aminoethoxy)-11-methyl-14-[methyl-[rac-(2S)-4-amino-2-[[2-(4-tert-butylphenyl)-4,6-dimethyl-pyrimidine-5-carbonyl]amino]butanoyl]amino]-10,13-dioxo-9,12-diazatricyclo [13.3.1.12,6]icosa-1(18),2(20),3,5,15(19), 16-hexaene-8-carboxylic acid]",0.52 µM,0.4 µM,,
"Cc1nc(-c2ccc(C(C)(C)C)cc2)nc(C)c1C(=O)N[C@@H](CCN)C(=O)N(C)[C@@H]1C(=O)N[C@@H](C)C(=O)N[C@H](C(=O)O)Cc2ccc(O)c(c2)-c2cc1ccc2OCCN (racemic) [Compound 646, rac-(8S,11S,14S)-18-(2-aminoethoxy)-3-hydroxy-11-methyl-14-[methyl-[rac-(2S)-4-amino-2-[[2-(4-tert-butylphenyl)-4,6-dimethyl-pyrimidine-5-carbonyl]amino]butanoyl]amino]-10,13-dioxo-9,12-diazatricyclo [13.3.1.12,6]icosa-1(18),2(20),3,5,15(19), 16-hexaene-8-carboxylic acid]",1.1 µM,0.37 µM,,
"Cc1nc(-c2ccc3c(c2)CCC3(C)C)nc(C)c1C(=O)N[C@@H](CCN)C(=O)N(C)[C@@H]1C(=O)N[C@@H](C)C(=O)N[C@H](C(=O)O)Cc2ccc(OCCN)c(c2)-c2cc1ccc2OCCN (racemic) [Compound 647, rac-(8S,11S,14S)-3,18-bis(2-aminoethoxy)-11-methyl-14-[methyl-[rac-(2S)-4-amino-2-[[2-(1,1-dimethylindan-5-yl)-4,6-dimethyl-pyrimidine-5-carbonyl]amino]butanoyl]amino]-10,13-dioxo-9,12-diazatricyclo [13.3.1.12,6]icosa-1(18),2(20),3,5,15(19), 16-hexaene-8-carboxylic acid]",0.19 µM,0.25 µM,,
"CCCCCOc1ccc(-c2nc(C)c(C(=O)N[C@@H](CCN)C(=O)N(C)[C@@H]3C(=O)N[C@@H](C)C(=O)N[C@H](C(=O)O)Cc4ccc(O)c(c4)-c4cc3ccc4OCCN)c(C)n2)cc1 (racemic) [Compound 648, rac-(8S,11S,14S)-18-(2-aminoethoxy)-3-hydroxy-11-methyl-14-[methyl-[rac-(2S)-4-amino-2-[[4,6-dimethyl-2-(4-pentoxyphenyl)pyrimidine-5-carbonyl]amino]butanoyl]amino]-10,13-dioxo-9,12-diazatricyclo [13.3.1.12,6]icosa-1(18),2(20),3,5,15(19), 16-hexaene-8-carboxylic acid]",0.28 µM,0.1 µM,,
"C[C@@H]1NC(=O)[C@@H](N(C)C(=O)[C@H](CCN)NC(=O)[C@H]2CC[C@H](c3ccc(C(C)(C)C)cc3)CC2)c2ccc(OCCN)c(c2)-c2cc(ccc2OCCN)C[C@@H](C(=O)NCC#N)NC1=O [Compound 391, rac-(8S,11S,14S)-3,18-bis(2-aminoethoxy)-N-(cyanomethyl)-11-methyl-14-[methyl-[rac-(2S)-4-amino-2-[[4-(4-tert-butylphenyl)cyclohexanecarbonyl]amino]butanoyl]amino]-10,13-dioxo-9,12-diazatricyclo[13.3.1.12,6]icosa-1(18),2(20),3,5,15(19),16-hexaene-8-carboxamide]",,,0.031 µM,0.25 µM
"C[C@@H]1NC(=O)[C@@H](N(C)C(=O)[C@H](CCN)NC(=O)[C@H]2CC[C@@H](c3ccc(C(C)(C)C)cc3)CC2)c2ccc(OCCN)c(c2)-c2cc(ccc2OCCN)C[C@@H](C(=O)NCC#N)NC1=O [Compound 392, rac-(8S,11S,14S)-3,18-bis(2-aminoethoxy)-N-(cyanomethyl)-11-methyl-14-[methyl-[rac-(2S)-4-amino-2-[[4-(4-tert-butylphenyl)cyclohexanecarbonyl]amino]butanoyl]amino]-10,13-dioxo-9,12-diazatricyclo[13.3.1.12,6]icosa-1(18),2(20),3,5,15(19),16-hexaene-8-carboxamide]",,,0.063 µM,3 µM
C[C@@H]1NC(=O)[C@@H](N(C)C(=O)[C@H](CCN)NC(=O)c2cnc(-c3ccc(C(C)(C)C)cc3)nc2N(C)C)c2ccc(OCCN)c(c2)-c2cc(ccc2OCCN)C[C@@H](C(=O)NCC#N)NC1=O [Compound 490],,,0.023 µM,1 µM
"Cc1nc(-c2ccc(OC3CCCCC3)cc2)nc(C)c1C(=O)N[C@@H](CCNS(C)(=O)=O)C(=O)N(C)[C@@H]1C(=O)N[C@@H](C)C(=O)N[C@H](C(=O)NCC#N)Cc2ccc(OCCN)c(c2)-c2cc1ccc2OCCN [Compound 497, (8S,11S,14S)-3,18-bis(2-aminoethoxy)-N-(cyanomethyl)-14-[[(2S)-2-[[2-[4-(cyclohexoxy)phenyl]-4,6-dimethyl-pyrimidine-5-carbonyl]amino]-4-(methanesulfonamido)butanoyl]-methyl-amino]-11-methyl-10,13-dioxo-9,12-diazatricyclo[13.3.1.12,6]icosa-1(18),2(20),3,5,15(19),16-hexaene-8-carboxamide]",,,0.047 µM,0.75 µM
"Cc1nc(-c2ccc(OC3CCCCC3)cc2)nc(C)c1C(=O)N[C@@H](CCNC(N)=O)C(=O)N(C)[C@@H]1C(=O)N[C@@H](C)C(=O)N[C@H](C(=O)NCC#N)Cc2ccc(OCCN)c(c2)-c2cc1ccc2OCCN [Compound 498, (8S,11S,14S)-3,18-bis(2-aminoethoxy)-N-(cyanomethyl)-14-[[(2S)-2-[[2-[4-(cyclohexoxy)phenyl]-4,6-dimethyl-pyrimidine-5-carbonyl]amino]-4-ureido-butanoyl]-methyl-amino]-11-methyl-10,13-dioxo-9,12-diazatricyclo[13.3.1.12,6]icosa-1(18),2(20),3,5,15(19),16-hexaene-8-carboxamide]",,,0.063 µM,1 µM

# Other lines, results leading:
MIC ([1]; Table 8),"MIC [2, 3]",MIC ([1]; Table 6),"MIC [2, 4]",Structure (SMILES)
,,0.016 µM,0.38 µM,"Cc1nc([C@H]2CC[C@H](C(C)(C)C)CC2)nc(C)c1C(=O)N[C@@H](CCN)C(=O)N(C)[C@@H]1C(=O)N[C@@H](C)C(=O)N[C@H](C(=O)NCC#N)Cc2ccc(OCCN)c(c2)-c2cc1ccc2OCCN [Compound 296, rac-(8S,11S,14S)-3,18-bis(2-aminoethoxy)-N-(cyanomethyl)-11-methyl-14-[methyl-[rac-(2S)-4-amino-2-[[2-(4-tert-butylcyclohexyl)-4,6-dimethyl-pyrimidine-5-carbonyl]amino]butanoyl]amino]-10,13-dioxo-9,12-diazatricyclo[13.3.1.12,6]icosa-1(18),2(20),3,5,15(19),16-hexaene-8-carboxamide]"
,,0.016 µM,0.75 µM,"Cc1nc([C@H]2CC[C@@H](C(C)(C)C)CC2)nc(C)c1C(=O)N[C@@H](CCN)C(=O)N(C)[C@@H]1C(=O)N[C@@H](C)C(=O)N[C@H](C(=O)NCC#N)Cc2ccc(OCCN)c(c2)-c2cc1ccc2OCCN [Compound 297, rac-(8S,11S,14S)-3,18-bis(2-aminoethoxy)-N-(cyanomethyl)-11-methyl-14-[methyl-[rac-(2S)-4-amino-2-[[2-(4-tert-butylcyclohexyl)-4,6-dimethyl-pyrimidine-5-carbonyl]amino]butanoyl]amino]-10,13-dioxo-9,12-diazatricyclo[13.3.1.12,6]icosa-1(18),2(20),3,5,15(19),16-hexaene-8-carboxamide]"
,,0.023 µM,0.5 µM,CCc1nc(-c2ccc(C(C)(C)C)cc2)nc(C)c1C(=O)N[C@@H](CCN)C(=O)N(C)[C@@H]1C(=O)N[C@@H](C)C(=O)N[C@H](C(=O)NCC#N)Cc2ccc(OCCN)c(c2)-c2cc1ccc2OCCN [Compound 485]
,,0.023 µM,0.38 µM,CCCc1nc(-c2ccc(C(C)(C)C)cc2)nc(C)c1C(=O)N[C@@H](CCN)C(=O)N(C)[C@@H]1C(=O)N[C@@H](C)C(=O)N[C@H](C(=O)NCC#N)Cc2ccc(OCCN)c(c2)-c2cc1ccc2OCCN [Compound 486]
,,0.016 µM,0.38 µM,Cc1nc(-c2ccc(C(C)(C)C)cc2)nc(C(C)C)c1C(=O)N[C@@H](CCN)C(=O)N(C)[C@@H]1C(=O)N[C@@H](C)C(=O)N[C@H](C(=O)NCC#N)Cc2ccc(OCCN)c(c2)-c2cc1ccc2OCCN [Compound 487]
,,0.016 µM,0.38 µM,CNc1nc(-c2ccc(C(C)(C)C)cc2)ncc1C(=O)N[C@@H](CCN)C(=O)N(C)[C@@H]1C(=O)N[C@@H](C)C(=O)N[C@H](C(=O)NCC#N)Cc2ccc(OCCN)c(c2)-c2cc1ccc2OCCN [Compound 489]
,,0.016 µM,2 µM,"Cc1nc(-c2ccc(C(C)(C)C)cc2)nc(C)c1C(=O)N[C@@H](CC(C)(C)N)C(=O)N(C)[C@@H]1C(=O)N[C@@H](C)C(=O)N[C@H](C(=O)NCC#N)Cc2ccc(OCCN)c(c2)-c2cc1ccc2OCCN [Compound 492, (8S,11S,14S)-14-[[(2S)-4-amino-2-[[2-(4-tert-butylphenyl)-4,6-dimethyl-pyrimidine-5-carbonyl]amino]-4-methyl-pentanoyl]-methyl-amino]-3,18-bis(2-aminoethoxy)-N-(cyanomethyl)-11-methyl-10,13-dioxo-9,12-diazatricyclo[13.3.1.12,6]icosa-1(18),2(20),3,5,15(19),16-hexaene-8-carboxamide]"
